Legend:
[1] = test system: phosphorylation of AKT and GSK3β; assay: EGF-induced AKT activation, Western blot; type: cell-based; details: 10-40 μM for 24 h, EGF 20 ng/ml 5 min
Description: Figure 4 Fumos doesn’t inhibit EGF-induced AKT activation. Fumos doesn’t inhibit EGF-induced AKT activation. […] DMSO treatment as control. Western blotting analysis for p-AKT, AKT, p-GSK3β and GSK3β.
(§1) After centrifugation, the supernatant was collected.

[2] = test system: ERK1/2 phosphorylation in HEK293T cells; assay: EGF-induced ERK1/2 activation, Western blot, HEK293T; type: cell-based, human; details: 10-40 μM for 24 h, EGF 20 ng/ml 5 min
Description: as §1

[3] = test system: ERK1/2 activation in HEK293T cells expressing H-RasV12; assay: RasV12-induced ERK1/2 activation in transfected HEK293T; type: cell-based, human; details: Fumos 20 μM or U0126 10 μM, 24 h
Experimental: DMSO treatment as control. […] (c) Fumos inhibits EGF-induced Ras activation.
HEK293T, MDA-MB-231and HeLa cell lines were obtained from CRC/PUMC. Cell lines were maintained in Dulbecco’s modified Eagle’s medium supplemented with 10% fetal bovine serum. Transfections were performed in 6-well plates according to manufacturer (Invitrogen Lipofectamine LTX).Briefly, for transient transfection of HEK293T cells, subconfluent cells in 6-well plates were incubated with 2 ml of Dulbecco’s modified Eagle’s medium containing 2.5 μg of total DNA and 7.5 μl of each Lipofectamine and Plus reagent (Invitrogen) and then serum-starved in DMEM/0.1% bovine serum albumin for 18 h. After Fumos treatment for 24 h, cells were stimulated for 5 min with 20 ng/ml EGF.
as §1

[4] = test system: Src and Paxillin phosphorylation in MDA-MB-231 cells; assay: Src, PLCγ1 and Paxillin phosphorylation, Western blot, MDA-MB-231; type: cell-based, human; details: 10-40 μM 24 h, EGF
Description: Figure 6 Fumos affects the phosphorylation of Src and Paxillin. […] DMSO treatment as control. Western blotting analysis for the expression of p-Src(Tyr416) p-Src (Tyr530), Src, p-PLCγ1, PLCγ1, p-Paxillin(Tyr118), p-Paxillin (Tyr31) and Paxillin. (b,c) Densitometric analysis of pSrc530/Src in the Western blots of Hela and MDA-MB-231, respectively. Bars represent mean ± S.E.M. values from three experiments, **p = 0.006 < 0.01/F = 8 vs EGF, one-way ANOVA followed by Tukey’s test.
as §1

Shp2-Y279A = biological target: T1, Shp2-Y279A (Homo sapiens, UniProt Q06124, Y279A); assay: Surface plasmon resonance analysis, Shp2-Y279A; type: binding
T1 sequence (Q06124 1-593 Y279A): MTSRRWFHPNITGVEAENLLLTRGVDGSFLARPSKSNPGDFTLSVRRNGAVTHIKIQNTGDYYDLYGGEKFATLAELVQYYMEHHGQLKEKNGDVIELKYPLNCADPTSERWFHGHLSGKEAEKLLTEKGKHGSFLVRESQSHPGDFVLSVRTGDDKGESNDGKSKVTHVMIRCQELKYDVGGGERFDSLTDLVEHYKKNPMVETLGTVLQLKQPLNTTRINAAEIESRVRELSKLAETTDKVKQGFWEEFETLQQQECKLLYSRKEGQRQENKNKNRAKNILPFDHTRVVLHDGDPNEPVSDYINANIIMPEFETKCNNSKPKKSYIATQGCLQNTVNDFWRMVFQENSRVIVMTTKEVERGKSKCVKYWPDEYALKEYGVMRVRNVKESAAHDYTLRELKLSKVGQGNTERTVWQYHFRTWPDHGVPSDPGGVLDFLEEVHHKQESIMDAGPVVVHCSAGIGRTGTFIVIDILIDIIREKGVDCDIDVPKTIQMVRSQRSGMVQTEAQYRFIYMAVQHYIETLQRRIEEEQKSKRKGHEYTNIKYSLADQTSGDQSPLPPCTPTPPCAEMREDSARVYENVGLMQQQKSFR
Experimental: One small molecule (10 mM) was spotted on the 3D sensor chip. Positive and negative controls on the chip were monitored for binding kinetics to verify immobilization. All experiments were performed using Plexera’s Plex Array SPRi instrumentation, visualized using Instrument Control software (ICS) and analyzed using Plexera Data Explorer software.
Proteins were injected in the following order: Shp2 full-length protein (12 nM, 36 nM, 108 nM, 324 nM), Shp2 Y279A protein (35 nM, 70 nM,140 nM, 280 nM, 560 nM). Each protein was injected at a flow rate of 1 μl/sec. The association duration was 200 sec and dissociation duration was 300 sec. Regeneration between injections was performed with 600 μl of 10 mM glycine-HCl, pH = 2.0. The data were analyzed by Plexera Data Explorer software.

[5] = SPR, Fumos immobilized, Shp2-Y279A injected

SMILES: CC[C@@H](C)C[C@@H](C)/C=C(C)/C=C/C=C/C=C(\C)C(=O)c1c(O)c(-c2ccc(O)cc2)cn(O)c1=O [Fumos, Fumosorinone]
- EGF-induced phosphorylation of AKT [1]: did not inhibit
- EGF-induced phosphorylation of GSK3β [1]: did not inhibit
- EGF-induced ERK1/2 phosphorylation [2]: drastically decreased
- RasV12-induced ERK1/2 activation [3]: did not inhibit
- Src Tyr416 phosphorylation [4]: dose-dependent downregulation
- phosphorylated Tyr 530 of Src [4]: moderately increased
- phosphorylation of PLCγ1 [4]: decreased
- phosphorylation of Paxillin at Tyr31 [4]: peaked at low concentrations of Fumos and reduced at high concentrations
- phosphorylation of Paxillin at Tyr118 [4]: decreased with the increasing concentrations
- affinity of Shp2-Y279A relative to Shp2-WT (Shp2-Y279A; SPR KD comparison): nine-fold less affinity
- Ka (association rate) (Shp2-Y279A; [5]): 5.06 × 10^4 M^−1 S^−1
- Kd (Shp2-Y279A; [5]): 368 nM
- Kd (dissociation rate) (Shp2-Y279A; [5]): 1.86 × 10^−2 S^−1

Source: PMC4667271, “Discovery of a Novel Inhibitor of the Protein Tyrosine Phosphatase Shp2” (Scientific Reports, 2015)
